Source: ChEMBL document CHEMBL4602644, “Synthesis of PJOV56, a new quinoxalinyl-hydrazone derivative able to induce autophagy and apoptosis in colorectal cancer cells, and related compounds” (Bioorg Med Chem Lett, 2020)
The source made the active and inactive calls. No cut-off for these calls is given here.

Columns and labels:
HCT-116 [1] = assay: Cytotoxicity against human HCT116 cells assessed as cell growth inhibition at 5 ug/ml measured after 72 hrs by MTT assay relative to control; format: functional; details: HCT-116, 72 h, read-out: GI
OVCAR-8 = assay: Cytotoxicity against human OVCAR8 cells assessed as cell growth inhibition at 5 ug/ml measured after 72 hrs by MTT assay relative to control; format: functional; details: OVCAR-8, 72 h, read-out: GI
HL-60 = assay: Cytotoxicity against human HL60 cells assessed as cell growth inhibition at 5 ug/ml measured after 72 hrs by MTT assay relative to control; format: functional; details: HL-60, 72 h, read-out: GI
SF-295 = assay: Cytotoxicity against human SF295 cells assessed as reduction in cell viability measured after 72 hrs by MTT assay; format: functional, cell-based; details: SF-295, 72 h
HCT-116 [2] = assay: Induction of morphological changes in human HCT116 cells assessed as bleb formation at 0.2 uM measured after 48 hrs by propidium iodide staining based flow cytometry; format: functional, cell-based
HCT-116 [3] = assay: Induction of DNA fragmentation in human HCT116 cells at 0.2 uM measured after 48 hrs by propidium iodide staining based flow cytometry relative to control; format: functional
HCT-116 [4] = assay: Cell cycle arrest in human HCT116 cells assessed as accumulation at G0/G1 phase at 0.2 uM measured after 48 hrs by propidium iodide staining based flow cytometry (reference value: 41.67 %); format: functional
L929 = assay: Cytotoxicity against mouse L929 cells assessed as reduction in cell viability measured after 72 hrs by MTT assay; format: cell-based; details: L929, 72 h
HCT-116 [5] = assay: Cell cycle arrest in human HCT116 cells assessed as accumulation at G2/M phase at 0.2 uM measured after 48 hrs by propidium iodide staining based flow cytometry (reference value: 24.98 %); format: functional
HCT-116 [6] = assay: Induction of morphological changes in human HCT116 cells assessed as cell pyknosis at 0.2 uM measured after 48 hrs by propidium iodide staining based flow cytometry; format: functional
HCT-116 [7] = assay: Cell cycle arrest in human HCT116 cells assessed as accumulation at S phase at 0.2 uM measured after 48 hrs by propidium iodide staining based flow cytometry (reference value: 33.29 %); format: functional
HCT-116 [8] = assay: Cell cycle arrest in human HCT116 cells assessed as accumulation at G0/G1 phase at 0.1 uM measured after 48 hrs by propidium iodide staining based flow cytometry (reference value: 41.67 %); format: functional
HCT-116 [9] = assay: Cell cycle arrest in human HCT116 cells assessed as accumulation at S phase at 0.1 uM measured after 48 hrs by propidium iodide staining based flow cytometry (reference value: 33.29 %); format: functional
HCT-116 [10] = assay: Cell cycle arrest in human HCT116 cells assessed as accumulation at G2/M phase at 0.1 uM measured after 48 hrs by propidium iodide staining based flow cytometry (reference value: 24.98 %); format: functional

| Structure (SMILES) | inhibition of growth at 5 µg/mL (HCT-116 [1]) [%] | inhibition of growth at 5 µg/mL (OVCAR-8) [%] | inhibition of growth at 5 µg/mL (HL-60) [%] | other results |
| --- | --- | --- | --- | --- |
| C(=N\Nc1cnc2ccccc2n1)/c1ccncc1 | 33.7 | 14.9 | 0 | – |
| C(=N\Nc1cnc2ccccc2n1)/c1cnc[nH]1 | 77.2 | 57.4 | 98.8 | – |
| C(=N\Nc1cnc2ccccc2n1)/c1cccnc1 | 18.8 | 10.2 | 0 | – |
| COc1cccc2c1C(=O)c1c(O)c3c(c(O)c1C2=O)C[C@@](O)(C(=O)CO)C[C@@H]3O[C@H]1C[C@H](N)[C@H](O)[C@H](C)O1 [DOXORUBICIN] | – | – | – | IC50 (SF-295): 250 nM; Activity (HCT-116 [2]): Active; Activity (HCT-116 [3]): 6.02%; Activity (HCT-116 [4]): 16.48%; IC50 (L929): 660 nM; Activity (HCT-116 [5]): 60.53%; Activity (HCT-116 [6]): Active; Activity (HCT-116 [7]): 22.72% |
| O=[N+]([O-])c1ccc(/C=N/Nc2cnc3ccccc3n2)o1 | 27.1 | 3.95 | 12.2 | – |
| C(=N\Nc1cnc2ccccc2n1)/c1ccc[nH]1 | 54.3 | 52.3 | 96.3 | – |
| O=[N+]([O-])c1ccc(/C=N/Nc2cnc3ccccc3n2)s1 | 0.03 | 0 | 0 | – |
| C(=N\Nc1cnc2ccccc2n1)/c1ccco1 | 9.01 | 3.56 | 0 | – |
| C(=N\Nc1cnc2ccccc2n1)/c1cccs1 | 21 | 0 | 19.7 | – |
| CC(=O)O[C@H]1C(=O)[C@@]2(C)[C@H]([C@H](OC(=O)c3ccccc3)[C@]3(O)C[C@H](OC(=O)[C@H](O)[C@@H](NC(=O)c4ccccc4)c4ccccc4)C(C)=C1C3(C)C)[C@]1(OC(C)=O)CO[C@@H]1C[C@@H]2O [PACLITAXEL] | – | – | – | Activity (HCT-116 [8]): 13.83%; Activity (HCT-116 [9]): 25.09%; Activity (HCT-116 [10]): 61.69% |
